The values that follow come from patent US20240374572A1, “METHODS FOR EXTENDING THE LIFESPAN OF CELLS AND ORGANISMS” (priority 2021, published 2024).

One series has as its system N2 worm. As to the kind of experiment: Heat shock survival of N2 worms. Conditions: moved from 20° C. to 42° C.; a few hundred micromolar; without compound 3 hours; FIG. 2D. The format is in vivo, Caenorhabditis elegans. The protocol: Besides the oxidative stress, the protective effect of ergothioneine for the worm under heat shock conditions was also examined. After the worms were cultured multiple days, they were then moved from 20° C. to 42° C. Under such a heat-shock condition, 50% of the worm died within 3 hours. However, in the presence of a few hundred micromolar concentration of ergothioneine, it extends N2 worm's average survival time from 3 hours to nearly 8-9 hours (FIG. 2D). Therefore, besides its life-extension effects under regular culture conditions, ergothioneine clearly offers protective effects to worms under oxidative stress and heat shock conditions.

The subject of a further series is daf-16 mutant worm. The series is described as follows: Lifespan of daf-16 mutant worm. The format is in vivo, Caenorhabditis elegans. Conditions: FIG. 3A. From the text: To address this issue, the large collection of C. elegans mutants in Caenorhabditis Genetics Center was again utilized in this example. Among the mutants examined, the daf-16 mutant results stood out (FIGS. 3A, 3B, and 3C). […] Among genes of the IIS pathway, daf-2 encodes an insulin-like receptor, and it is the starting point of the pathway that eventually leads to daf-16. Daf-16 is the hub, where information from several different pathways merge and then use to regulate many physiological processes. Worm daf-16 mutant has an average life-span that is […] the N2 worm (FIGS. 3A, 3B, and 3C; FIGS. 4-6).

For the next series, the system named is N2 worms. The series is described as follows: Paraquat-induced oxidative stress in N2 worms. It is filed as in vivo, Caenorhabditis elegans. The settings on record: FIG. 2C. As for the experimental part:
Encouraged by the clear life-extension effect on worm model under regular culture conditions in the above example, the protective effect of ergothioneine under stresses was examined. In the first experiment, the worm was treated with paraquat to induce oxidative stress. Under the paraquat-induced oxidative stress conditions, N2 worms' life span was decreased by nearly 50% (FIG. 2C vs. FIG. 2A).

For series [1] the following is noted: through transporter OCTN1; humans; cited from earlier work.
In the next series the test system is worm Eat-2 mutant. As to the kind of experiment: Lifespan of worm Eat-2 mutant (caloric restriction model). The format is in vivo, Caenorhabditis elegans. The settings on record: FIG. 2B. The protocol: (§1) At 150 μM, the lifespan of the wild type worm can be extended by 30-40% (FIG. 2A). Over the last two decades, there is numerous evidence supporting the life-extension effect by caloric restriction from various model systems (yeast, worm, fly, and mouse). Thus, the effect of ergothioneine on worm Eat-2 mutant was also examined.

In series [2] the test system is primary cortical neuron culture. As to the kind of experiment: Oxygen glucose deprivation of primary cortical neuron culture. The format is cell-based. The settings on record: FIG. 5D.
In series [3] the test system is stroke middle cerebral artery occlusion (MCAO) model. As to the kind of experiment: Stroke middle cerebral artery occlusion (MCAO) model. It is filed as in vivo. The settings on record: MCAO mice, vs vehicle. From the text:
FIGS. 7A, 7B, 7C, and 7D show the protective effect of ergothioneine on stroke MCAO model (images of tissue sample (FIG. 7A), infarct volume (FIG. 7B), neurological deficit (FIG. 7C), and cerebral blood flow (CBF) (FIG. 7D) of Sham, vehicle, and ergothioneine treated mice).
The MCAO model is a stroke model that uses mice and rats. The model involves inserting a surgical filament into the external carotid artery and threading it into the internal carotid artery. The filament is inserted to block blood flow for a set period of time, usually 30-120 minutes. The filament is then removed to allow reperfusion, resulting in an ischemic stroke. A sham mouse is a control animal used in […]. Sham procedures are performed on a control group participant to ensure they experience the same effects as those who receive a true operation.
As shown, ergothioneine reduces the infarct size by at least 50%. […] As shown, ergothioneine reduces neurological deficit by at least 40%. […] As shown, ergothioneine […] cerebral blood flow by at least 60%.

The subject of series [4] is accelerated ageing mouse model. The series is described as follows: Accelerated ageing mouse model. It is filed as in vivo. From the text:
FIGS. 5A, 5B, 5C, and 5D show the animal study in rats (FIG. 5A: untreated disease group; FIG. 5B treated disease group).
Another aspect provides a method of treating a subject diagnosed to have a premature ageing disease or condition, comprising treating the subject with a therapeutically effective amount of compound I. In some embodiments, the premature ageing disease is Hutchinson-Gilford progeria syndrome. In some embodiments, the premature ageing disease is Werner syndrome. In some embodiments, the premature ageing disease or condition is premature ageing of skin, mucous membranes, scalp and/or hair of the subject. In some embodiments, the method may further include a step of identifying or determining the subject as having premature ageing disease or condition. Procedures of the determination step for premature ageing disease or condition are generally known in the field. As shown in the example section and FIGS. 4-6, the study (accelerated ageing mouse model) analyzed the physical appearance and activities of two groups (with and without the feeding of Compound I, 20 mg/kg daily) over the period of about 1 year.

For series [5] the following is noted: in vivo; cited from earlier work.
In series [6] the test system is pancreatic/renal kallikrein (Klk1) related Kallikrein system. The series is described as follows: RNA-seq analysis of peri-infarct area of the MCAO model. The settings on record: FIG. 8. The format is in vivo, mice. From the text:
FIGS. 8A and 8B that the results of RNA-seq analysis of peri-infarct area of the MCAO model.
KLK1 is a key protein in the Kallikrein-Kinin system (KKS). The KKS promotes local blood flow and vasodilation, and may also reduce inflammation and oxidative stress. KLK1 is a serine protease that plays a critical role in regulating blood pressure, blood flow, and microcirculation. It's a secretory product of the salivary glands and the pancreas, and is also found in the kidney. KLK1 has a major function of reducing blood pressure by releasing the peptide hormone Lys-bradykinin (kallidin) from low molecular weight kininogen. This affects muscle relaxation and inflammatory processes. KLK1 also has anti-inflammatory, anti-apoptotic, anti-fibrotic, and anti-oxidative actions.

For another series, the system named is N2 C. elegans. The series is described as follows: Lifespan of N2 C. elegans under regular culture conditions. It is filed as in vivo, Caenorhabditis elegans. The settings on record: FIG. 2A.
Text: In this example, the biological functions of ergothioneine were investigated using (C. elegans as the model system. Using (C. elegans as the model has several prominent advantages, including short life cycle, simple experimental manipulation, and rich collection of publicly available genetic mutants (e.g., Caenorhabditis Genetics Center). In addition, its genome comprises 2/3 of human disease-related genes.
To test the biological effect of ergothioneine, the first set of experiments was to test the toxicity level of ergothioneine on the worm model. In humans, ergothioneine is enriched up to 2 mM concentration in many parts of the body.
as §1

Series [7] has as its system adhesion molecules VACM-1, ICAM-1, and E-selectin. Conditions: cited from earlier work.
[8] abbreviates: 20 mg/kg daily feeding, about 1 year, treated vs untreated group.
Where [9] appears, read: mice, compared to untreated mice, FIG. 5C.

Consider `C[N+](C)(C)[C@@H](Cc1c[nH]c(=S)[nH]1)C(=O)O` [ergothioneine, Ergothioneine], for which, in the series with N2 worm, the “average survival time under heat shock” value was 8 to 9 h. In addition, the “life-extension effect in daf-16 mutant” value with daf-16 mutant worm is given as “the life-extension effect was abolished”. In addition, the “protective effect under oxidative stress” value in the series with N2 worms is “clearly offers protective effects and alleviates the detrimental effects of oxidative stress”. Also, the “concentration accumulated in many parts of the body” value in [1] is “up to 2 mM”. In addition, the “life extension of Eat-2 worm mutant” value with worm Eat-2 mutant was “can further extend the life”. Also, in series [2], the “cell death caused by oxygen glucose deprivation” value is reported as “reverses cell death”. Besides, the “reduction of infarct size” value in series [3] (FIG. 7B) was “at least 50%”. In addition, the “reduction of neurological deficit” value in series [3] (FIG. 7C) is given as “at least 40%”. For the same compound, the “reduction of cerebral blood flow (CBF)” value in [3] (FIG. 7D) was “at least 60%”. For the same compound, the “effect on the ageing process” value in series [4] (20 mg/kg daily feeding, about 1 year) was “could effectively slow down the ageing process”. Besides, in [4] (setting [8]), the average weight result is on record as “higher average weight” and the skin condition result is on record as “more smooth skin condition”. The “physical activity of the untreated group relative to the treated group” value in [4] (20 mg/kg daily feeding, about 1 year, words describe the group without treatment) is reported as “less active physically”. Further, in [4] (setting [9]), the “extension of maximum lifespan” value is on record as “at least 30%” and the “extension of median lifespan” value was “at least 40%”. In addition, the blood-brain barrier passage result in series [5] is “can pass through the blood-brain barrier”. In addition, in [6], the “regulation of Klk1 related Kallikrein system (RNA level)” value is listed as “up-regulate”. Moreover, the life-extension effect entry in the series on N2 C. elegans (50 μM, N2 C. elegans) was “robust life-extension effect”. The lifespan extension in the series with N2 C. elegans (150 μM, wild type worm) is 30-40%. The “expression of adhesion molecules VACM-1, ICAM-1, and E-selectin” value in series [7] is recorded as “decreases the expression”.
